From patent US8293479B2, “Use of parathyroid hormone-related protein(PTHRP) in the diagnosis and treatment of chronic lung disease and other pathologies” (Los Angeles Biomedical Research Institute at Harbor UCLA …, priority 2002, dated 2012) come the findings set out here.

One assay deals with Myofibroblasts (P10s). Kind of assay: PGJ2 treatment of P10 myofibroblasts, lipofibroblast marker expression. In kind it is cell-based, rat. To be noted: PGJ2 30 µM, up to 144 hours (FIG. 13).
The test system of assay [1] is fetal rat lung type II cells. The experiment in a line: Co-culture of fetal rat type II cells with PGJ2-pretreated myofibroblasts, cell count and RT-PCR for Surfactant Protein B. It counts as cell-based. As to the method: FIGS. 14A and 14B show the effect of lipofibroblasts and myofibroblasts on fetal rat type II cell growth and differentiation. Fetal type II cells were co-cultured with lipofibroblasts, myofibroblasts or myofibroblasts pretreated with PGJ2. Cell growth was determined by cell count and differentiation was determined by RT-PCR for Surfactant Protein B. Note that in the presence of lipofibroblasts or myofibroblasts treated with PGJ2 that type II cells grow (see Figure on left) and differentiate (Figure on right) with time in culture. […] Day 1 v subsequent day in culture, *, p<0.05; **; p<0.01; ***,p<0.0001 by Analysis of Variance.
In order to link the process of fibroblast transdifferentiation to alveolarization, we recombined day 19 fetal rat lung type II cells with either P1 lipofibroblasts, P10 myofibroblasts, or P10 myofibroblasts pretreated with PGJ2; PGJ2 induces the transdifferentiation of myofibroblasts to lipofibroblasts (Hu et al. (1995) Proc. Natl. Acad. Sci. USA 92:9856-9860).

The test system of assay [2] is fetal rat lung fibroblasts (FRLF). The experiment in a line: PGJ2 treatment of fetal rat lung fibroblasts, spontaneous and hyperoxia-induced lipo-to-myofibroblast transdifferentiation. It counts as cell-based. As to conditions: PGJ2 30 µM. As to the method:
e18 (pre-term) and e21 (near term) fetal rat lung fibroblasts were maintained in DMEM+10% fetal bovine serum in 21% (control) or 95% (experimental) O2+5% CO2 in sealed modular incubator chambers (Billups-Rothenberg, Del Mar, Calif.) kept at 37° C. in standard incubators. Modular incubators were flushed for 3 min at a flow rate of 10 liters/min with either 21 or 95% O2+5% CO2 with remainder of the gas mixture as N2. Modular incubators were then sealed and then put in standard cell culture incubators. When confluent, cells were passaged and allowed to grow in 21% O2 for 24 h. Subsequently, control cells were maintained in 21% O2+5% CO2 and experimental cells in 95% O2+5% CO2 in modular incubators as described above This was continued up to passage 5. Passage 1 and 5 cells were studied for the expression of various lipogenic and myogenic markers by reverse transcriptase-polymerase chain reaction (RT-PCR).
RT PCR probes used included-Rat Parathyroid Hormone related Protein Receptor (PTHrPR): 5′ CTCTTCTTGACTGTTGTCGCTGGT (SEQ ID NO:14) and 3′[…] […] Rat alpha Smooth Muscle Actin (SMA). RT-PCR was carried out for 2 hours at 37° C. in 50 mM Tris buffer, pH 8.3 containing 75 mM KCl, 3 mM MgCl2 and 10 mM DTT. […] The cDNA is adjusted to equal concentrations as assessed by the PCR of the constitutively expressed gene, GAPDH (rat lung GAPDH). […]

The subject of assay [3] is E19 fetal rat lung fibroblasts. The experiment in a line: PTHrP treatment of fetal rat lung fibroblasts, ADRP mRNA by competitive RT-PCR. It counts as cell-based. As to conditions: 0.5 µM PTHrP (printed 0.5:M), 15 hours, normalized to GAPDH.
Assay [4] relates to E21 fetal rat lung lipofibroblasts. Kind of assay: PTHrP treatment of serially passaged (P4) transdifferentiating lipofibroblasts, marker expression by competitive RT-PCR. It counts as cell-based. As to conditions: PTHrP 0.5 µM, compared with P1.
For another assay, the system named is d18 FRLFs. The experiment in a line: Antioxidant pretreatment of FRLFs exposed to hyperoxia, ADRP mRNA expression. In kind it is cell-based, rat. To be noted: 95% O2 for 24 h, one hour antioxidant pretreatment.

Experimental for d18 FRLFs: RT-PCR was carried out for 2 hours at 37° C. in 50 mM Tris buffer, pH 8.3 containing 75 mM KCl, 3 mM MgCl2 and 10 mM DTT. The total volume of incubation was 20 μl and it contained 0.5 mM each of dNTP, 20 U of RNasin, 25 pmol of oligo(dt) primer and 200 U of Moroney murine leukemia virus reverse transcriptase. […] The cDNA is adjusted to equal concentrations as assessed by the PCR of the constitutively expressed gene, GAPDH (rat lung GAPDH). […]

Consider `CCCCC[C@H](O)/C=C/[C@H]1C(=O)C=C[C@@H]1C/C=C\CCCC(=O)O` [PGJ2, prostaglandin J2], for which the “expression of ADRP by P10 myofibroblasts” value with Myofibroblasts (P10s) is “increased the expression of ADRP”. The “Surfactant Protein-B expression by type II cells” value in assay [1] (type II cells co-cultured with PGJ2-treated P10 myofibroblasts) is “comparable to that by lipofibroblasts”. The “type II cell proliferation (cell number)” value in assay [1] (type II cells co-cultured with PGJ2 pre-treated P10 myofibroblasts, 5 day culture) is “comparable to that of primary lipofibroblasts”. Further, the “hyperoxia induced lipo-to-myofibroblast transdifferentiation” value in assay [2] (24 h treatment) is recorded as “partially blunts”. The “spontaneous decrease in ADRP mRNA expression” value in assay [2] (up to 72 h in culture) is recorded as “attenuated”.

In the case of “PTHrP: Parathyroid Hormone-related Protein; PTHrP (1-34) and PTHrP (7-34) amide were obtained from Bachem”, the ADRP expression result in assay [3] was “inducing ADRP expression”. In assay [4] (P4 lipofibroblasts, 24 hour treatment), the “alpha SMA expression” value is reported as “decreased alpha SMA expression down to levels comparable to those observed for P1s”. For the same compound, in assay [4] (lipofibroblasts treated at Passage 4 for 24 hours), the “PTHrP receptor expression (printed in b310 as PTHrP expression)” value was “increase in PTHrP expression up to a level comparable to that of P1s”.

Turning to superoxide dismutase, the “prevention of hyperoxia-induced decrease in ADRP mRNA expression” value in the assay with d18 FRLFs was “ineffective”.
